The supplement of paper PMC10307832

How the values were obtained:
Assay in all cases: relative viability (nuclei count vs DMSO), 5 days (fraction); higher = more cells survive
HCC-827 = test system: HCC-827
Procedure, shortened: (§1)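 After 5 days of treatment, lung cancer cells in 1536-well plates were fixed and stained in a single step (final 0.05% Triton X-100, 1% formaldehyde, 1 ug/ml Hoechst) and their nuclei counted on 4× images. Treatment had been applied by pin tool the day after seeding as one drug alone or as a fixed anchor-drug dose with five library-drug doses (not always all listed) in √10 steps. Relative viability is the nuclei count of treated wells divided by that of vehicle wells, and values are medians of duplicate plates.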

NCI-H2170 = test system: NCI-H2170
Procedure, shortened: as §1

NCI-H2085 = test system: NCI-H2085
Procedure, shortened: as §1

LU99A = test system: LU99A
Procedure, shortened: as §1

NCI-H1975 = test system: NCI-H1975
Procedure, shortened: as §1

BEN = test system: BEN
Procedure, shortened: as §1

NCI-H647 = test system: NCI-H647
Procedure, shortened: as §1

H3255 = test system: H3255
Procedure, shortened: as §1

NCI-H1437 = test system: NCI-H1437
Procedure, shortened: as §1

COR-L 105 = test system: COR-L 105
Procedure, shortened: as §1

EPLC-272H = test system: EPLC-272H
Procedure, shortened: as §1

NCI-H2342 = test system: NCI-H2342
Procedure, shortened: as §1

LOU-NH91 = test system: LOU-NH91
Procedure, shortened: as §1

PC-3 [JPC-3] = test system: PC-3 [JPC-3]
Procedure, shortened: as §1

LCLC-97TM1 = test system: LCLC-97TM1
Procedure, shortened: as §1

NCI-H2087 = test system: NCI-H2087
Procedure, shortened: as §1

EKVX = test system: EKVX
Procedure, shortened: as §1

NCI-H1666 = test system: NCI-H1666
Procedure, shortened: as §1

201T = test system: 201T
Procedure, shortened: as §1

NCI-H650 = test system: NCI-H650
Procedure, shortened: as §1

SW 1573 = test system: SW 1573
Procedure, shortened: as §1

Nc1ccn([C@@H]2O[C@H](CO)[C@@H](O)[C@@H]2O)c(=O)n1 [Cytarabine] + Cc1nc(Nc2ncc(C(=O)Nc3c(C)cccc3Cl)s2)cc(N2CCN(CCO)CC2)n1 [Dasatinib] (partner 0.075 µM)
relative viability (HCC-827; first compound 0.005 µM): 0.445
relative viability (HCC-827; first compound 0.01581 µM): 0.397
relative viability (HCC-827; first compound 0.05 µM): 0.4
relative viability (HCC-827; first compound 0.1581 µM): 0.226
relative viability (HCC-827; first compound 0.5 µM): 0.227
relative viability (NCI-H2170; first compound 0.005 µM): 0.576
relative viability (NCI-H2170; first compound 0.01581 µM): 0.589
relative viability (NCI-H2170; first compound 0.05 µM): 0.533
relative viability (NCI-H2170; first compound 0.1581 µM): 0.244
relative viability (NCI-H2170; first compound 0.5 µM): 0.241
relative viability (NCI-H2085; first compound 0.005 µM): 0.202
relative viability (NCI-H2085; first compound 0.01581 µM): 0.263
relative viability (NCI-H2085; first compound 0.05 µM): 0.2
relative viability (NCI-H2085; first compound 0.1581 µM): 0.188
relative viability (NCI-H2085; first compound 0.5 µM): 0.2
relative viability (LU99A; first compound 0.005 µM): 0.563
relative viability (LU99A; first compound 0.01581 µM): 0.647
relative viability (LU99A; first compound 0.05 µM): 0.58
relative viability (LU99A; first compound 0.1581 µM): 0.578
relative viability (LU99A; first compound 0.5 µM): 0.364
relative viability (NCI-H1975; first compound 0.005 µM): 0.329
relative viability (NCI-H1975; first compound 0.01581 µM): 0.47
relative viability (NCI-H1975; first compound 0.05 µM): 0.338
relative viability (NCI-H1975; first compound 0.1581 µM): 0.297
relative viability (NCI-H1975; first compound 0.5 µM): 0.191
relative viability (BEN; first compound 0.005 µM): 0.332
relative viability (BEN; first compound 0.01581 µM): 0.312
relative viability (BEN; first compound 0.05 µM): 0.204
relative viability (BEN; first compound 0.1581 µM): 0.175
relative viability (BEN; first compound 0.5 µM): 0.213
relative viability (NCI-H647; first compound 0.005 µM): 0.104
relative viability (NCI-H647; first compound 0.01581 µM): 0.0553
relative viability (NCI-H647; first compound 0.05 µM): 0.0872
relative viability (NCI-H647; first compound 0.1581 µM): 0.0307
relative viability (NCI-H647; first compound 0.5 µM): 0.0339
relative viability (H3255; first compound 0.005 µM): 0.363
relative viability (H3255; first compound 0.01581 µM): 0.3
relative viability (H3255; first compound 0.05 µM): 0.273
relative viability (H3255; first compound 0.1581 µM): 0.199
relative viability (H3255; first compound 0.5 µM): 0.319
relative viability (NCI-H1437; first compound 0.005 µM): 0.395
relative viability (NCI-H1437; first compound 0.01581 µM): 0.26
relative viability (NCI-H1437; first compound 0.05 µM): 0.228
relative viability (NCI-H1437; first compound 0.1581 µM): 0.142
relative viability (NCI-H1437; first compound 0.5 µM): 0.165
relative viability (COR-L 105; first compound 0.005 µM): 0.314
relative viability (COR-L 105; first compound 0.01581 µM): 0.311
relative viability (COR-L 105; first compound 0.05 µM): 0.293
relative viability (COR-L 105; first compound 0.1581 µM): 0.196
relative viability (COR-L 105; first compound 0.5 µM): 0.187
relative viability (EPLC-272H; first compound 0.005 µM): 0.304
relative viability (EPLC-272H; first compound 0.01581 µM): 0.241
relative viability (EPLC-272H; first compound 0.05 µM): 0.211
relative viability (EPLC-272H; first compound 0.1581 µM): 0.113
relative viability (EPLC-272H; first compound 0.5 µM): 0.0979
relative viability (NCI-H2342; first compound 0.005 µM): 0.309
relative viability (NCI-H2342; first compound 0.01581 µM): 0.295
relative viability (NCI-H2342; first compound 0.05 µM): 0.262
relative viability (NCI-H2342; first compound 0.1581 µM): 0.257
relative viability (NCI-H2342; first compound 0.5 µM): 0.277
relative viability (LOU-NH91; first compound 0.005 µM): 0.542
relative viability (LOU-NH91; first compound 0.01581 µM): 0.555
relative viability (LOU-NH91; first compound 0.05 µM): 0.422
relative viability (LOU-NH91; first compound 0.1581 µM): 0.416
relative viability (LOU-NH91; first compound 0.5 µM): 0.398
relative viability (PC-3 [JPC-3]; first compound 0.005 µM): 0.952
relative viability (PC-3 [JPC-3]; first compound 0.01581 µM): 0.884
relative viability (PC-3 [JPC-3]; first compound 0.05 µM): 1.01
relative viability (PC-3 [JPC-3]; first compound 0.1581 µM): 0.63
relative viability (PC-3 [JPC-3]; first compound 0.5 µM): 0.603
relative viability (LCLC-97TM1; first compound 0.005 µM): 0.795
relative viability (LCLC-97TM1; first compound 0.01581 µM): 0.839
relative viability (LCLC-97TM1; first compound 0.05 µM): 0.798
relative viability (LCLC-97TM1; first compound 0.1581 µM): 0.227
relative viability (LCLC-97TM1; first compound 0.5 µM): 0.264
relative viability (NCI-H2087; first compound 0.005 µM): 0.747
relative viability (NCI-H2087; first compound 0.01581 µM): 0.712
relative viability (NCI-H2087; first compound 0.05 µM): 0.82
relative viability (NCI-H2087; first compound 0.1581 µM): 0.265
relative viability (NCI-H2087; first compound 0.5 µM): 0.233
relative viability (EKVX; first compound 0.005 µM): 0.567
relative viability (EKVX; first compound 0.01581 µM): 0.416
relative viability (EKVX; first compound 0.05 µM): 0.456
relative viability (EKVX; first compound 0.1581 µM): 0.357
relative viability (EKVX; first compound 0.5 µM): 0.273
relative viability (NCI-H1666; first compound 0.005 µM): 0.773
relative viability (NCI-H1666; first compound 0.01581 µM): 0.725
relative viability (NCI-H1666; first compound 0.05 µM): 0.642
relative viability (NCI-H1666; first compound 0.1581 µM): 0.396
relative viability (NCI-H1666; first compound 0.5 µM): 0.394
relative viability (201T; first compound 0.005 µM): 0.659
relative viability (201T; first compound 0.01581 µM): 0.642
relative viability (201T; first compound 0.05 µM): 0.709
relative viability (201T; first compound 0.1581 µM): 0.444
relative viability (201T; first compound 0.5 µM): 0.501
relative viability (NCI-H650; first compound 0.005 µM): 0.474
relative viability (NCI-H650; first compound 0.01581 µM): 0.399
relative viability (NCI-H650; first compound 0.05 µM): 0.257
relative viability (NCI-H650; first compound 0.1581 µM): 0.213
relative viability (NCI-H650; first compound 0.5 µM): 0.165
relative viability (SW 1573; first compound 0.005 µM): 0.34
relative viability (SW 1573; first compound 0.01581 µM): 0.333
relative viability (SW 1573; first compound 0.05 µM): 0.381
relative viability (SW 1573; first compound 0.1581 µM): 0.122
relative viability (SW 1573; first compound 0.5 µM): 0.089
